# Results: doi:10.1101/2025.09.05.674519v1 (biorxiv, 2025)
# Where a name gives a salt, the structure may show the parent alone.
# Legend:
# [1] = biological target: T1, ULK2 (recombinant human ULK2 protein 1-478, ADP-Glo) (Homo sapiens, UniProt Q8IYT8); assay: ADP-Glo kinase assay; format: biochemical
# T1 sequence (Q8IYT8 1-478): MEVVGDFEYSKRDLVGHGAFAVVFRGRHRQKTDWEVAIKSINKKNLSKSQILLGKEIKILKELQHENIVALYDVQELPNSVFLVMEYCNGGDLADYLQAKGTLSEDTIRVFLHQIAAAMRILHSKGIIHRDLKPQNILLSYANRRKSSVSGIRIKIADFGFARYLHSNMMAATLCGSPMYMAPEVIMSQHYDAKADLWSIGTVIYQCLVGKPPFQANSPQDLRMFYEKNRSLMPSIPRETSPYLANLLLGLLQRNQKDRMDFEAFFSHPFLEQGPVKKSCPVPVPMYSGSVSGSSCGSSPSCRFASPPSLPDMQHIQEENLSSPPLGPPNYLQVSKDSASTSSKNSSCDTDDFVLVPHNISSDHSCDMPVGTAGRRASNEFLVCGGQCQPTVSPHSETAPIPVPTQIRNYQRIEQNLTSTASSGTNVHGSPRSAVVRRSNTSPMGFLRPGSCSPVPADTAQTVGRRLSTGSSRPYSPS
# [2] = biological target: T2, NanoLuc-ULK2 (NanoBRET) (Homo sapiens, UniProt Q8IYT8); assay: NanoBRET tracer displacement in live HEK293T cells; format: cell-based
# T2 sequence (Q8IYT8 1-1036): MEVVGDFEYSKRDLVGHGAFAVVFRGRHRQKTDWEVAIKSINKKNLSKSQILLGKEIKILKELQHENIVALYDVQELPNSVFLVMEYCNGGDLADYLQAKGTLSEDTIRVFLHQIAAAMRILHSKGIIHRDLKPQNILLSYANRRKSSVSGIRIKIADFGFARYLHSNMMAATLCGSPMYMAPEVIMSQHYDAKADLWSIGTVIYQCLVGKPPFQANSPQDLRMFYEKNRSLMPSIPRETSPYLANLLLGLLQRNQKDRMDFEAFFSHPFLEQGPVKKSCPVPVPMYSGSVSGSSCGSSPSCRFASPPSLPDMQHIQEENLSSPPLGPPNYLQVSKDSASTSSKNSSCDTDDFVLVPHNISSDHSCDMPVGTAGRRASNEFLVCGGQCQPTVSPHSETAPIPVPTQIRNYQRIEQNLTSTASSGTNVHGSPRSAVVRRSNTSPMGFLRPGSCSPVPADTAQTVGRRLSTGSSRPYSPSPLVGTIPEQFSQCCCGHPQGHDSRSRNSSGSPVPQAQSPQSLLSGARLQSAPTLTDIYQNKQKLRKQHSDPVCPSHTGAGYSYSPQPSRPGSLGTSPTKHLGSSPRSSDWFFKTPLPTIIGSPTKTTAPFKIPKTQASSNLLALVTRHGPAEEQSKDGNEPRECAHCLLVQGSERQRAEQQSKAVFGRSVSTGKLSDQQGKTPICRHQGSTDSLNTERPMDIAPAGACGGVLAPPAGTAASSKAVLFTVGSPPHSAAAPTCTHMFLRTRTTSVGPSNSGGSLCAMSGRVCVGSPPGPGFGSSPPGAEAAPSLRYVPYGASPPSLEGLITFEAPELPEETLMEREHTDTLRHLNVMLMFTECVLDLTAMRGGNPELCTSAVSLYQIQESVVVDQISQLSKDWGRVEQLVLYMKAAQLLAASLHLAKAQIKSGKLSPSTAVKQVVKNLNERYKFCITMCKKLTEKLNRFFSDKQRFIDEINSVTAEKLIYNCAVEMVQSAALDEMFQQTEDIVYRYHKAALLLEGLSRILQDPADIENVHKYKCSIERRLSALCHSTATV
# [3] = biological target: T1, ULK2 (recombinant human ULK2 protein 1-478, ADP-Glo); assay: biochemical
# [4] = biological target: T2, NanoLuc-ULK2 (NanoBRET); assay: cell-based; set-up: species or system HEK293T
# [5] = biological target: T3, ULK2 kinase domain (1-276) (Homo sapiens, UniProt Q8IYT8); assay: biochemical; details: read-out: ULK2 PTS (ºC)
# T3 sequence (Q8IYT8 1-276): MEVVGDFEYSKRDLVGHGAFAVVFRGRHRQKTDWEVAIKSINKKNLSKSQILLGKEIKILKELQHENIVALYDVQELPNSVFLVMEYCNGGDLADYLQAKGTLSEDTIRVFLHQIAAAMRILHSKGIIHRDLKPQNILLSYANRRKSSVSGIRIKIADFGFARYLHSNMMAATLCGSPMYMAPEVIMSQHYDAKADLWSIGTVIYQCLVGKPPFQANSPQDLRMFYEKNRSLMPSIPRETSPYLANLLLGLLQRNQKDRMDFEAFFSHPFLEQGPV
# [6] = biological target: T4, ULK1 (recombinant human ULK1 protein 1-649, ADP-Glo) (Homo sapiens, UniProt O75385); assay: ADP-Glo kinase assay; format: biochemical
# T4 sequence (O75385 1-649): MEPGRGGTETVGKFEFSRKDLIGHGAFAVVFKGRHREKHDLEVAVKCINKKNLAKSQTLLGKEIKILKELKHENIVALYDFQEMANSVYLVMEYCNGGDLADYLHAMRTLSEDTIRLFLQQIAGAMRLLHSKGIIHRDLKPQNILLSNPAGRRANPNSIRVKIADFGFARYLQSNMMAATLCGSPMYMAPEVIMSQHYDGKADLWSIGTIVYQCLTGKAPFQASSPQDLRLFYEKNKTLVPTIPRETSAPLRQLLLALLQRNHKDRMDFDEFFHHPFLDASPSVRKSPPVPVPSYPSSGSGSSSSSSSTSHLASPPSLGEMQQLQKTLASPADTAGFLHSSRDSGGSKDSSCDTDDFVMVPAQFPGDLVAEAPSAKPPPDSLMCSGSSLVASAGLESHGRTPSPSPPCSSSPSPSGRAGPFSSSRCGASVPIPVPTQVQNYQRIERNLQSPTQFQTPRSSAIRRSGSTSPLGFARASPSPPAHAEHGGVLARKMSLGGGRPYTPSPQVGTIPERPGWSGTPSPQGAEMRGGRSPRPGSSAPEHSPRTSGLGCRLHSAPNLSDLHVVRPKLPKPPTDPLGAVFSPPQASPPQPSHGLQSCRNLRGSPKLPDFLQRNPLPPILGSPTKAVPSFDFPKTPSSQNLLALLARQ
# [7] = biological target: T5, NanoLuc-ULK1 (NanoBRET) (Homo sapiens, UniProt O75385); assay: NanoBRET tracer displacement in live HEK293T cells; format: cell-based
# T5 sequence (O75385 1-1050): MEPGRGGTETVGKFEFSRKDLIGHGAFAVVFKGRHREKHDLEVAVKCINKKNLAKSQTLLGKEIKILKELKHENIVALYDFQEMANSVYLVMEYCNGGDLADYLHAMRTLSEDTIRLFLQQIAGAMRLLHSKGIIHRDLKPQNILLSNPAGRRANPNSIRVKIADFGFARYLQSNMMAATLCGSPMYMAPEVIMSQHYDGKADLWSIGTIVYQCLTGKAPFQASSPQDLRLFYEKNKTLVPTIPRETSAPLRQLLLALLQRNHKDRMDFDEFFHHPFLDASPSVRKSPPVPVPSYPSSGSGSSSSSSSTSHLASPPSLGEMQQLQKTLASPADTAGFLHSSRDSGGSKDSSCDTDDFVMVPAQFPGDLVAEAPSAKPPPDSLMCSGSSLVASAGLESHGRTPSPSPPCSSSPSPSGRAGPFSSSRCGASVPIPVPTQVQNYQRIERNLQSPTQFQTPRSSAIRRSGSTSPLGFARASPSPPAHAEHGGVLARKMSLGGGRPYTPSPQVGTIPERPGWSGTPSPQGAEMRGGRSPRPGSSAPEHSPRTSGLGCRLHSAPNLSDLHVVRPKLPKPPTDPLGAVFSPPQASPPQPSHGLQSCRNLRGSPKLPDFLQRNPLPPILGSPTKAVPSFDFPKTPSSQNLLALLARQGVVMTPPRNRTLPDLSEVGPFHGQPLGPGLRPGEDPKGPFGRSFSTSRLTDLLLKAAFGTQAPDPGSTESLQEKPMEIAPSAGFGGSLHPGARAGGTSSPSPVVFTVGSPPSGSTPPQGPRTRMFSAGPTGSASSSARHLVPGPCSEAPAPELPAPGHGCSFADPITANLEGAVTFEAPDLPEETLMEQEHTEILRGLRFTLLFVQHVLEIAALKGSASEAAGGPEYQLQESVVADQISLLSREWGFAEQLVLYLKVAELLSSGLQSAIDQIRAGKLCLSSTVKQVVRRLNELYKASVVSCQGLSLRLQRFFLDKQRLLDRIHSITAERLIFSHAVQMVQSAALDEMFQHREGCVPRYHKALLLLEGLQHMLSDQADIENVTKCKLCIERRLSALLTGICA
SMILES,IC50 [1],IC50 [2],IC50 [3],IC50 [4],ΔTm at 10 µM [5],IC50 [6],IC50 [7]
COc1cc(Nc2ncc(C(F)(F)F)c(NC3CC3)n2)cc(OC)c1OC [compound 1],64 ± 22 nM,172 ± 33 nM,,,,,
"O=C1CCc2cc(Nc3ncc(C(F)(F)F)c(NC4CC4)n3)ccc2N1 [compound 2, 6-((4-(Cyclopropylamine)-5-(trifluoromethyl)pyrimidine-2-yl)amino)-3,4-dihydroquinoline-2(1H)-one]",118 ± 34 nM,174 nM,,,,,
"O=C1Cc2cc(Nc3ncc(C(F)(F)F)c(NC4CC4)n3)ccc2N1 [compound 3, 5-((4-(Cyclopropylamine)-5-(trifluoromethyl)pyrimidin-2-yl)amino)indolin-2-one]",,,704 ± 63 nM,1100 ± 454 nM,3 ± 1.3 °C,,
"COc1cc(Nc2ncc(Br)c(NC3CC3)n2)cc(OC)c1OC [compound 6, 5-Bromo-N4-cyclopropyl-N2-(3,4,5-trimethoxyphenyl)pyrimidine-2,4-diamine]",,,217 ± 108 nM,1470 ± 261 nM,7 ± 0.7 °C,,
"O=C1CCc2cc(Nc3ncc(Br)c(NC4CC4)n3)ccc2N1 [compound 7, 6-((5-Bromo-4-(cyclopropylamine)pyrimidin-2-yl)amino)-3,4-dihydroquinolin-2(1H)-one]",,,896 ± 92 nM,1580 ± 325 nM,2 ± 0.8 °C,,
"O=C1CCc2cc(Nc3nccc(NC4CC4)n3)ccc2N1 [compound 8, 8]",,,,,,2330 ± 667 nM,> 10000 nM
"O=C1CCc2cc(Nc3ncc(C(F)(F)F)c(NC4CCCC4)n3)ccc2N1 [compound 12, 6-((4-(Cyclopentylamine)-5-(trifluoromethyl)pyrimidin-2-yl)amino)-3,4-dihydroquinolin-2(1H)-one]",,,,,,25 ± 6 nM,> 10000 nM
"O=C1CCc2cc(Nc3ncc(C(F)(F)F)c(NCC(F)(F)F)n3)ccc2N1 [compound 14, 6-((4-((2,2,2-Trifluoroethyl)amino)-5-(trifluoromethyl)pyrimidin-2-yl)amino)-3,4 dihydroquinolin-2(1H)-one]",,,464 ± 90 nM,1820 ± 599 nM,4 ± 0.1 °C,,
"O=C1CCc2cc(Nc3ncc(C(F)(F)F)c(NCCO)n3)ccc2N1 [compound 15, 6-((4-((2-Hydroxyethyl)amino)-5-(trifluoromethyl)pyrimidin-2-yl)amino)-3,4-dihydroquinolin-2(1H)-one]",,,980 ± 62 nM,875 ± 131 nM,8 ± 0.1 °C,,
"NCCCNc1nc(Nc2ccc3c(c2)CCC(=O)N3)ncc1C(F)(F)F [compound 19, 6-((4-((3-Aminopropyl)amino)-5-(trifluoromethyl)pyrimidin-2-yl)amino)-3,4 dihydroquinolin-2(1H)-one·HCl]",,,480 ± 65 nM,77 ± 13 nM,7.5 °C,,
"O=C1CCc2cc(Nc3ncc(C(F)(F)F)c(NCCCNC(=O)C4CC4)n3)ccc2N1 [compound 21, N-(3-((2-((2-Oxo-1,2,3,4-tetrahydroquinolin-6-yl)amino)-5-(trifluoromethyl)pyrimidin-4-yl)amino)propyl)cyclopropanecarboxamide]",50 ± 12 nM,44 ± 10 nM,,,8 ± 0.6 °C,,
